Source: PubChem BioAssay (NCI)
“And” between values parts separate entries of the source, which are not always exact repeats. Equal values may be shown once.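 Step 1: Grow cells in 96-well plates. Step 2: Expose to compound for 48 hours at 5 concentrations. Step 3: Interpolate endpoints linearly; if unreached, use highest concentration. GI50 marks 50% less growth. TGI marks complete inhibition of growth.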

What was measured:
Assay in all cases: inhibition of tumour cell growth, NCI panel, 48 h
786-0 renal = test system: 786-0 renal
A498 renal = test system: A498 renal
A549 NSCLC = test system: A549 NSCLC
ACHN renal = test system: ACHN renal
BT-549 breast = test system: BT-549 breast
CAKI-1 renal = test system: CAKI-1 renal
CCRF-CEM leukemia = test system: CCRF-CEM leukemia
COLO 205 colon = test system: COLO 205 colon
EKVX NSCLC = test system: EKVX NSCLC
HCC-2998 colon = test system: HCC-2998 colon
HCT-116 colon = test system: HCT-116 colon
HCT-15 colon = test system: HCT-15 colon
HL-60(TB) leukemia = test system: HL-60(TB) leukemia
HOP-62 NSCLC = test system: HOP-62 NSCLC
HOP-92 NSCLC = test system: HOP-92 NSCLC
HT29 colon = test system: HT29 colon
IGROV1 ovarian = test system: IGROV1 ovarian
KM12 colon = test system: KM12 colon
LOX IMVI melanoma = test system: LOX IMVI melanoma
M14 melanoma = test system: M14 melanoma
MALME-3M melanoma = test system: MALME-3M melanoma
MCF7 breast = test system: MCF7 breast
MDA-MB-231 breast = test system: MDA-MB-231 breast
MDA-MB-435 = test system: MDA-MB-435
MOLT-4 leukemia = test system: MOLT-4 leukemia
NCI-H226 lung = test system: NCI-H226 lung
NCI-H23 lung = test system: NCI-H23 lung
NCI-H460 lung = test system: NCI-H460 lung
NCI-H522 lung = test system: NCI-H522 lung
NCI/ADR-RES ovarian = test system: NCI/ADR-RES ovarian
OVCAR-3 ovarian = test system: OVCAR-3 ovarian
OVCAR-4 ovarian = test system: OVCAR-4 ovarian
OVCAR-5 ovarian = test system: OVCAR-5 ovarian
OVCAR-8 ovarian = test system: OVCAR-8 ovarian
PC-3 prostate = test system: PC-3 prostate
RPMI-8226 leukemia = test system: RPMI-8226 leukemia
RXF 393 renal = test system: RXF 393 renal
SF-268 CNS = test system: SF-268 CNS
SF-295 CNS = test system: SF-295 CNS
SF-539 CNS = test system: SF-539 CNS
SK-MEL-2 melanoma = test system: SK-MEL-2 melanoma
SK-MEL-28 melanoma = test system: SK-MEL-28 melanoma
SK-MEL-5 melanoma = test system: SK-MEL-5 melanoma
SK-OV-3 ovarian = test system: SK-OV-3 ovarian
SN12C renal = test system: SN12C renal
SNB-19 CNS = test system: SNB-19 CNS
SNB-75 CNS = test system: SNB-75 CNS
SR leukemia = test system: SR leukemia
T-47D breast = test system: T-47D breast
TK-10 renal = test system: TK-10 renal
U251 CNS = test system: U251 CNS
UACC-257 melanoma = test system: UACC-257 melanoma
UACC-62 melanoma = test system: UACC-62 melanoma
UO-31 renal = test system: UO-31 renal
DU-145 prostate = test system: DU-145 prostate
HS 578T breast = test system: HS 578T breast
K-562 leukemia = test system: K-562 leukemia
SW-620 colon = test system: SW-620 colon

Q: What does the source list for `CN(C)CCNC(=O)c1ccc(NCCCN(C)CCCNc2ccc(C(=O)NCCN(C)C)c3[nH]c4ccccc4c(=O)c23)c2c(=O)c3ccccc3[nH]c12`?
A: TGI (786-0 renal): 312 nM; TGI (A498 renal): 502 nM; TGI (A549 NSCLC): 313 nM; TGI (ACHN renal): 1710 nM; TGI (BT-549 breast): 1630 nM; TGI (CAKI-1 renal): 2590 nM; TGI (CCRF-CEM leukemia): 406 nM; TGI (COLO 205 colon): 294 nM; TGI (EKVX NSCLC): 674 nM; TGI (HCC-2998 colon): 177 nM; TGI (HCT-116 colon): 205 nM; TGI (HCT-15 colon): 4520 nM; TGI (HL-60(TB) leukemia): 659 nM; TGI (HOP-62 NSCLC): 459 nM; TGI (HOP-92 NSCLC): 3820 nM; TGI (HT29 colon): 236 nM; TGI (IGROV1 ovarian): 2070 nM; TGI (KM12 colon): 627 nM; TGI (LOX IMVI melanoma): 179 nM; TGI (M14 melanoma): 1460 nM; TGI (MALME-3M melanoma): 302 nM; TGI (MCF7 breast): 440 nM; TGI (MDA-MB-231 breast): 309 nM; TGI (MDA-MB-435): 194 nM; TGI (MOLT-4 leukemia): 1090 nM; TGI (NCI-H226 lung): 609 nM; TGI (NCI-H23 lung): 315 nM; TGI (NCI-H460 lung): 120 nM; TGI (NCI-H522 lung): 143 nM; TGI (NCI/ADR-RES ovarian): 16000 nM; TGI (OVCAR-3 ovarian): 694 nM; TGI (OVCAR-4 ovarian): 247 nM; TGI (OVCAR-5 ovarian): 647 nM; TGI (OVCAR-8 ovarian): 1140 nM; TGI (PC-3 prostate): 331 nM; TGI (RPMI-8226 leukemia): 419 nM; TGI (RXF 393 renal): 1150 nM; TGI (SF-268 CNS): 271 nM; TGI (SF-295 CNS): 1310 nM; TGI (SF-539 CNS): 2240 nM; TGI (SK-MEL-2 melanoma): 262 nM; TGI (SK-MEL-28 melanoma): 1230 nM; TGI (SK-MEL-5 melanoma): 1500 nM; TGI (SK-OV-3 ovarian): 427 nM; TGI (SN12C renal): 397 nM; TGI (SNB-19 CNS): 419 nM; TGI (SNB-75 CNS): 84.4 nM; TGI (SR leukemia): 532 nM; TGI (T-47D breast): 1850 nM; TGI (TK-10 renal): 1980 nM; TGI (U251 CNS): 247 nM; TGI (UACC-257 melanoma): 1260 nM; TGI (UACC-62 melanoma): 353 nM; TGI (UO-31 renal): 1900 nM

Q: How did the GI50 (A498 renal) turn out when `CCOC(=O)c1sc(-c2ccc(OS(=O)(=O)c3ccccc3[N+](=O)[O-])c(C=O)c2)nc1C` was run?
A: 532 nM

Q: What about the TGI (A498 renal) of the same compound?
A: 7570 nM

Q: What about the GI50 (CCRF-CEM leukemia) of the same compound?
A: 1830 nM

Q: And the TGI (CCRF-CEM leukemia)?
A: 4490 nM

Q: What about the GI50 (DU-145 prostate) of the same compound?
A: 3240 nM

Q: What about the TGI (DU-145 prostate) of the same compound?
A: > 100000 nM

Q: And the GI50 (HOP-92 NSCLC)?
A: 1920 nM

Q: And the TGI (HOP-92 NSCLC)?
A: 5500 nM

Q: What about the GI50 (HS 578T breast) of the same compound?
A: 2990 nM

Q: What about the TGI (HS 578T breast) of the same compound?
A: > 100000 nM

Q: And the GI50 (K-562 leukemia)?
A: 1610 nM

Q: What about the TGI (K-562 leukemia) of the same compound?
A: > 100000 nM

Q: What about the GI50 (RXF 393 renal) of the same compound?
A: 1620 nM

Q: And the TGI (RXF 393 renal)?
A: 5770 nM

Q: What about the GI50 (SNB-75 CNS) of the same compound?
A: 1370 nM

Q: And the TGI (SNB-75 CNS)?
A: 8440 nM

Q: What about the GI50 (SR leukemia) of the same compound?
A: 1960 nM

Q: And the TGI (SR leukemia)?
A: > 100000 nM

Q: And the GI50 (UO-31 renal)?
A: 2360 nM

Q: What about the TGI (UO-31 renal) of the same compound?
A: > 100000 nM

Q: For `CCOC(=O)c1[nH]c(Br)c(-c2ccc(OC)c(OC)c2)c1Br`, which TGI (786-0 renal) is on record?
A: 11700 nM

Q: What about the TGI (A498 renal) of the same compound?
A: 194 nM

Q: And the GI50 (A549 NSCLC)?
A: 56.4 nM

Q: And the TGI (A549 NSCLC)?
A: 23000 nM

Q: And the GI50 (ACHN renal)?
A: 239 nM

Q: And the TGI (ACHN renal)?
A: 22600 nM

Q: And the TGI (BT-549 breast)?
A: 3160 nM

Q: What about the GI50 (COLO 205 colon) of the same compound?
A: 20 nM

Q: What about the TGI (COLO 205 colon) of the same compound?
A: 1070 nM

Q: What about the GI50 (DU-145 prostate) of the same compound?
A: 15.5 nM

Q: And the TGI (DU-145 prostate)?
A: 4650 nM and 18300 nM

Q: What about the GI50 (EKVX NSCLC) of the same compound?
A: 10400 nM

Q: What about the TGI (EKVX NSCLC) of the same compound?
A: 43300 nM

Q: And the TGI (HCT-116 colon)?
A: 13700 nM

Q: And the GI50 (HCT-15 colon)?
A: 40 nM

Q: And the TGI (HCT-15 colon)?
A: 15400 nM

Q: What about the TGI (HL-60(TB) leukemia) of the same compound?
A: 1990 nM

Q: And the GI50 (HOP-62 NSCLC)?
A: 25.3 nM

Q: What about the TGI (HOP-62 NSCLC) of the same compound?
A: 14800 nM

Q: And the GI50 (HT29 colon)?
A: 25.8 nM

Q: What about the TGI (HT29 colon) of the same compound?
A: 66.7 nM and 308 nM

Q: What about the GI50 (IGROV1 ovarian) of the same compound?
A: 49.4 nM

Q: And the TGI (IGROV1 ovarian)?
A: 11900 nM

Q: And the TGI (K-562 leukemia)?
A: 12700 nM

Q: What about the GI50 (KM12 colon) of the same compound?
A: 17.2 nM

Q: And the TGI (M14 melanoma)?
A: 16000 nM

Q: And the GI50 (MCF7 breast)?
A: 338 nM

Q: And the TGI (MCF7 breast)?
A: 17200 nM

Q: What about the GI50 (MDA-MB-435) of the same compound?
A: 2.79 nM

Q: What about the TGI (MDA-MB-435) of the same compound?
A: 9.73 nM

Q: And the TGI (MOLT-4 leukemia)?
A: 8590 nM

Q: What about the TGI (NCI-H226 lung) of the same compound?
A: 1650 nM

Q: And the GI50 (NCI-H23 lung)?
A: 7830 nM

Q: What about the GI50 (NCI-H460 lung) of the same compound?
A: 19200 nM

Q: And the TGI (NCI-H460 lung)?
A: > 100000 nM

Q: And the GI50 (NCI-H522 lung)?
A: 32.8 nM

Q: What about the TGI (NCI-H522 lung) of the same compound?
A: 349 nM

Q: What about the TGI (NCI/ADR-RES ovarian) of the same compound?
A: > 100000 nM

Q: What about the GI50 (OVCAR-5 ovarian) of the same compound?
A: 20300 nM

Q: And the TGI (OVCAR-5 ovarian)?
A: 63300 nM

Q: And the GI50 (OVCAR-8 ovarian)?
A: 51.1 nM

Q: And the TGI (OVCAR-8 ovarian)?
A: 36800 nM

Q: And the GI50 (PC-3 prostate)?
A: 11.2 nM

Q: What about the TGI (PC-3 prostate) of the same compound?
A: 23700 nM

Q: What about the TGI (RPMI-8226 leukemia) of the same compound?
A: 16600 nM

Q: And the TGI (RXF 393 renal)?
A: 42.4 nM

Q: What about the GI50 (SF-268 CNS) of the same compound?
A: 1030 nM

Q: And the TGI (SF-268 CNS)?
A: 35700 nM

Q: And the TGI (SF-295 CNS)?
A: 35.6 nM

Q: And the GI50 (SF-539 CNS)?
A: 11.6 nM

Q: And the TGI (SF-539 CNS)?
A: 42.8 nM and 12.8 nM

Q: What about the GI50 (SK-MEL-2 melanoma) of the same compound?
A: 15.2 nM

Q: What about the TGI (SK-MEL-2 melanoma) of the same compound?
A: 20200 nM

Q: What about the TGI (SK-MEL-28 melanoma) of the same compound?
A: 20300 nM

Q: And the GI50 (SK-MEL-5 melanoma)?
A: 33.9 nM

Q: What about the TGI (SK-MEL-5 melanoma) of the same compound?
A: 4300 nM and 6500 nM

Q: What about the GI50 (SN12C renal) of the same compound?
A: 1590 nM

Q: And the TGI (SN12C renal)?
A: 49400 nM

Q: And the GI50 (SNB-19 CNS)?
A: 13.7 nM

Q: And the TGI (SNB-19 CNS)?
A: 17600 nM

Q: What about the TGI (SNB-75 CNS) of the same compound?
A: 32800 nM

Q: And the TGI (SR leukemia)?
A: 13400 nM

Q: And the TGI (SW-620 colon)?
A: 38100 nM

Q: And the TGI (T-47D breast)?
A: 72500 nM

Q: What about the TGI (TK-10 renal) of the same compound?
A: 55200 nM

Q: What about the TGI (U251 CNS) of the same compound?
A: 1440 nM

Q: And the GI50 (UACC-257 melanoma)?
A: 10000 nM

Q: What about the TGI (UACC-257 melanoma) of the same compound?
A: 22300 nM

Q: And the TGI (UACC-62 melanoma)?
A: 22000 nM

Q: And the TGI (UO-31 renal)?
A: 9960 nM
